Data on ten compounds can be found in ChEMBL document CHEMBL5365500, “Development and Antibacterial Properties of 4-[4-(Anilinomethyl)-3-phenylpyrazol-1-yl]benzoic Acid Derivatives as Fatty Acid Biosynthesis Inhibitors” (J Med Chem, 2023).

A word on the MIC: it is the lowest concentration found to suppress growth.

Common to all, as to type: functional
What all share (conditions): time 20-24 hrs

For test [1], the system named is Staphylococcus aureus. The test is described as follows: Antimicrobial activity against Staphylococcus aureus ATCC 25923 assessed as inhibition of visible growth measured after 20 to 24 hrs incubation by CLSI method.
Test [2] relates to Staphylococcus aureus. Kind of test: Antimicrobial activity against antibiotic-resistant Staphylococcus aureus ATCC BAA-2312 assessed as inhibition of visible growth measured after 20 to 24 hrs incubation by CLSI method.
For test [3], the system named is Staphylococcus aureus. Kind of test: Antimicrobial activity against antibiotic-resistant Staphylococcus aureus ATCC 33591 assessed as inhibition of visible growth measured after 20 to 24 hrs incubation by CLSI method.
The subject of test [4] is Staphylococcus aureus. The test is described as follows: Antimicrobial activity against antibiotic-resistant Staphylococcus aureus ATCC 33592 assessed as inhibition of visible growth measured after 20 to 24 hrs incubation by CLSI method.
Test [5] has as its system Staphylococcus aureus. Kind of test: Antimicrobial activity against antibiotic-resistant Staphylococcus aureus ATCC 700699 assessed as inhibition of visible growth measured after 20 to 24 hrs incubation by CLSI method.
Test [6] concerns Staphylococcus epidermidis. Kind of test: Antimicrobial activity against antibiotic-resistant Staphylococcus epidermidis ATCC 700296 assessed as inhibition of visible growth measured after 20 to 24 hrs incubation by CLSI method.
For test [7], the system named is Enterococcus faecalis. The test is described as follows: Antimicrobial activity against antibiotic-susceptible Enterococcus faecalis ATCC 29212 assessed as inhibition of visible growth measured after 20 to 24 hrs incubation by CLSI method.
In test [8] the test system is Enterococcus faecalis. The test is described as follows: Antimicrobial activity against antibiotic-resistant Enterococcus faecalis ATCC 51299 assessed as inhibition of visible growth measured after 20 to 24 hrs incubation by CLSI method.
Test [9] has as its system Enterococcus faecium. Kind of test: Antimicrobial activity against antibiotic-resistant Enterococcus faecium ATCC 700221 assessed as inhibition of visible growth measured after 20 to 24 hrs incubation by CLSI method.
Test [10] deals with Bacillus subtilis. Kind of test: Antimicrobial activity against antibiotic-resistant Bacillus subtilis ATCC 6623 assessed as inhibition of visible growth measured after 20 to 24 hrs incubation by CLSI method.

Values after ≈ are worked out from the molar mass of the structure shown. Some results are limits rather than exact numbers.

`O=C(O)c1ccc(-n2cc(CNc3ccc(Oc4ccccc4)cc3)c(-c3ccc(F)cc3)n2)cc1`: the minimum inhibitory concentration (MIC) was found to be 2 µg/mL (≈ 4.17 µM) in test [1]; 2 µg/mL (≈ 4.17 µM) in test [2]; 1 µg/mL (≈ 2.09 µM) in test [3]; 4 µg/mL (≈ 8.34 µM) in [4]; 2 µg/mL (≈ 4.17 µM) in [5]; 4 µg/mL (≈ 8.34 µM) in test [6]. Also, the MIC in test [7] was 8 µg/mL (≈ 16.7 µM); in [8] it was 4 µg/mL (≈ 8.34 µM); in test [9] it was 4 µg/mL (≈ 8.34 µM); in test [10], 2 µg/mL (≈ 4.17 µM).
For `O=C(O)c1ccc(-n2cc(CNc3cccc(Br)c3)c(-c3ccc(F)cc3)n2)cc1`, the minimal inhibitory concentration (MIC) in [1] came out at 8 µg/mL (≈ 17.2 µM); in [2] it was 8 µg/mL (≈ 17.2 µM); in [3] it was 4 µg/mL (≈ 8.58 µM); in test [4], 16 µg/mL (≈ 34.3 µM); in test [5], 8 µg/mL (≈ 17.2 µM); in [6], 16 µg/mL (≈ 34.3 µM). Further, the minimum inhibitory concentration (MIC) in test [7] is 32 µg/mL (≈ 68.6 µM); in test [8] it was 32 µg/mL (≈ 68.6 µM); in test [9], 16 µg/mL (≈ 34.3 µM); in test [10] it was 4 µg/mL (≈ 8.58 µM).
In the case of `O=C(O)c1ccc(-n2cc(CNc3ccccc3)c(-c3ccc(F)c(F)c3)n2)cc1`, the MIC in [1] was 16 µg/mL (≈ 39.5 µM); in [2], 32 µg/mL (≈ 78.9 µM); in [3] it was 16 µg/mL (≈ 39.5 µM); in test [4], 32 µg/mL (≈ 78.9 µM); in [5], 32 µg/mL (≈ 78.9 µM); in test [6] it was 16 µg/mL (≈ 39.5 µM). For the same compound, the MIC in test [7] was greater than 32 µg/mL; in [8], greater than 32 µg/mL; in test [9] it was 32 µg/mL (≈ 78.9 µM); in test [10], 8 µg/mL (≈ 19.7 µM).
For `O=C(O)c1ccc(-n2cc(CNc3cc(F)c(F)c(F)c3)c(-c3ccc(F)cc3)n2)cc1`, the MIC in test [1] is 32 µg/mL (≈ 72.5 µM); in test [2], greater than 32 µg/mL; in [3], greater than 32 µg/mL; in [4], greater than 32 µg/mL; in test [5] it was greater than 32 µg/mL; in test [6] it was greater than 32 µg/mL. Further, the minimum inhibitory concentration (MIC) was greater than 32 µg/mL in test [7], greater than 32 µg/mL in test [8], greater than 32 µg/mL in [9] and 4 µg/mL (≈ 9.06 µM) in test [10].
On to `O=C(O)c1ccc(-n2cc(CNc3cc(C(F)(F)F)cc(C(F)(F)F)c3)c(-c3ccc(F)c(F)c3)n2)cc1`, for which the minimal inhibitory concentration (MIC) in [1] was 1 µg/mL (≈ 1.85 µM); in test [2], 0.5 µg/mL (≈ 0.924 µM); in test [3], 0.5 µg/mL (≈ 0.924 µM); in [4], 1 µg/mL (≈ 1.85 µM); in [5] it was 1 µg/mL (≈ 1.85 µM); in test [6], 4 µg/mL (≈ 7.39 µM). Moreover, the MIC in test [7] worked out at 2 µg/mL (≈ 3.69 µM); in [8], 2 µg/mL (≈ 3.69 µM); in test [9], 2 µg/mL (≈ 3.69 µM); in test [10] it was 0.5 µg/mL (≈ 0.924 µM).
For the compound `O=C(O)c1ccc(-n2cc(CNc3cc(F)c(F)c(F)c3)c(-c3cccc(F)c3)n2)cc1`, the MIC in test [1] was 4 µg/mL (≈ 9.06 µM); in test [2], 4 µg/mL (≈ 9.06 µM); in [3], 1 µg/mL (≈ 2.27 µM); in test [4], 4 µg/mL (≈ 9.06 µM); in test [5], 8 µg/mL (≈ 18.1 µM); in test [6], 8 µg/mL (≈ 18.1 µM). Moreover, the minimal inhibitory concentration (MIC) in [7] was found to be 32 µg/mL (≈ 72.5 µM); in [8], 32 µg/mL (≈ 72.5 µM); in [9], 16 µg/mL (≈ 36.2 µM); in test [10], 4 µg/mL (≈ 9.06 µM).
Regarding `O=C(O)c1ccc(-n2cc(CNc3ccc(Br)cc3)c(-c3cccc(F)c3)n2)cc1`, the minimal inhibitory concentration (MIC) in test [1] came to 4 µg/mL (≈ 8.58 µM); in test [2], 8 µg/mL (≈ 17.2 µM); in test [3] it was 4 µg/mL (≈ 8.58 µM); in [4], 16 µg/mL (≈ 34.3 µM); in test [5], 16 µg/mL (≈ 34.3 µM); in [6] it was 16 µg/mL (≈ 34.3 µM). Further, the MIC in test [7] stood at 32 µg/mL (≈ 68.6 µM); in test [8], 32 µg/mL (≈ 68.6 µM); in test [9] it was 16 µg/mL (≈ 34.3 µM); in test [10] it was 4 µg/mL (≈ 8.58 µM).
As to `O=C(O)c1ccc(-n2cc(CNc3ccc(Br)cc3)c(-c3ccc(F)cc3)n2)cc1`, the MIC in test [1] is 8 µg/mL (≈ 17.2 µM); in [2], 16 µg/mL (≈ 34.3 µM); in test [3] it was 4 µg/mL (≈ 8.58 µM); in test [4], greater than 32 µg/mL; in test [5] it was 16 µg/mL (≈ 34.3 µM); in test [6] it was greater than 32 µg/mL. Also, the minimum inhibitory concentration (MIC) in test [7] is greater than 32 µg/mL; in [8], greater than 32 µg/mL; in test [9] it was greater than 32 µg/mL; in test [10], 4 µg/mL (≈ 8.58 µM).
In the case of `O=C(O)c1ccc(-n2cc(CNc3cc(Cl)cc(C(F)(F)F)c3)c(-c3ccc(F)cc3)n2)cc1`, the MIC turned out to be 4 µg/mL (≈ 8.17 µM) in [1]; 4 µg/mL (≈ 8.17 µM) in test [2]; 2 µg/mL (≈ 4.08 µM) in test [3]; 4 µg/mL (≈ 8.17 µM) in test [4]; 2 µg/mL (≈ 4.08 µM) in test [5]; 8 µg/mL (≈ 16.3 µM) in [6]. The minimum inhibitory concentration (MIC) in test [7] is 16 µg/mL (≈ 32.7 µM); in [8], 16 µg/mL (≈ 32.7 µM); in test [9], 4 µg/mL (≈ 8.17 µM); in [10] it was 4 µg/mL (≈ 8.17 µM).
Consider `O=C(O)c1ccc(-n2cc(CNc3cc(Cl)cc(Cl)c3)c(-c3ccc(F)c(F)c3)n2)cc1`, for which the MIC worked out at 1 µg/mL (≈ 2.11 µM) in [1]; 1 µg/mL (≈ 2.11 µM) in test [2]; 0.5 µg/mL (≈ 1.05 µM) in [3]; 2 µg/mL (≈ 4.22 µM) in test [4]; 2 µg/mL (≈ 4.22 µM) in test [5]; 2 µg/mL (≈ 4.22 µM) in test [6]. For the same compound, the MIC in test [7] was determined as 4 µg/mL (≈ 8.43 µM); in test [8] it was 8 µg/mL (≈ 16.9 µM); in [9] it was 2 µg/mL (≈ 4.22 µM); in test [10] it was 0.5 µg/mL (≈ 1.05 µM).
